Reference: patent publication US9060541B2, “Sterilizer for foods” (Kawakami Co., Ltd., priority 2009, dated 2015)
Like-named read-outs stand apart in the source and are kept apart here.

Experiments:
Format in all cases: cell-based
Parameters in all cases: key: D: There is no sterilization effect.; C: There is a sterilization effect in step (1) but no sterilization effect in step (2).; B: There is a sterilization effect up to step (2) but no sterilization effect in step (3).; A: There is a sterilization effect up to step (3)
[1] = system: Vibrio cholerae O1 NIH 41
[2] = system: Vibrio cholerae non-O1 non-O139 KX-N105
Vibrio mimicus KX-M5 = assay: Comparison test of sterilization effects against various food poisoning microbes
Vibrio fluvialis KX-F24 = assay: as above
[3] = system: Salmonella serotype Rissen KX-S151; assay: as above
[4] = system: Salmonella serotype Kentucky KX-S149; assay: as above
[5] = system: Salmonella serotype Enteritidis KX-S148; assay: as above
[6] = system: Plesiomonas shigelloides KX-P1945; assay: as above
Aeromonas sobria KX-A435 = assay: as above
[7] = system: Enterotoxigenic Escherichia coli RIMD 0509267; assay: as above
[8] = system: Enterohemorrhagic Escherichia coli O157:H7 EDL 933
[9] = system: Enteroaggregative Escherichia coli O111:H21 K-H-6; assay: Comparison test of sterilization effects against various food poisoning microbes
[10] = system: Pseudomonas anguilliseptica NCMB1950; assay: as above
[11] = system: Lactobacillus plantarum RIMD 1202001; assay: as above
[12] = system: Campylobacter jejuni subsp. Jejuni JCM2013; assay: as above
[13] = Table 7, test microbe solution without yeast extract
[14] = Table 8, yeast extract 4 weight % blended in test microbe solution

| SMILES | Sterilization effect [1, 13] | Sterilization effect [1, 14] | Sterilization effect [2, 13] | Sterilization effect [2, 14] | Sterilization effect (Vibrio mimicus KX-M5; [13]) | Sterilization effect (Vibrio mimicus KX-M5; [14]) | Sterilization effect (Vibrio fluvialis KX-F24; [13]) | Sterilization effect (Vibrio fluvialis KX-F24; [14]) | Sterilization effect [3, 13] | Sterilization effect [3, 14] | Sterilization effect [4, 13] | Sterilization effect [4, 14] | Sterilization effect [5, 13] | Sterilization effect [5, 14] | Sterilization effect [6, 13] | Sterilization effect [6, 14] | Sterilization effect (Aeromonas sobria KX-A435; [13]) | Sterilization effect (Aeromonas sobria KX-A435; [14]) | Sterilization effect [7, 13] | Sterilization effect [7, 14] | also measured |
| --- | --- | --- | --- | --- | --- | --- | --- | --- | --- | --- | --- | --- | --- | --- | --- | --- | --- | --- | --- | --- | --- |
| CCO [EtOH 30%, ethanol] | B | C | C | C | C | C | C | C | C | C | C | C | C | C | B | B | B | C | D | D | Sterilization effect [8]: D; Sterilization effect [9, 13]: D; Sterilization effect [9, 14]: D; Sterilization effect [10, 13]: B; Sterilization effect [10, 14]: B; Sterilization effect [11, 13]: C; Sterilization effect [11, 14]: D; Sterilization effect [12, 13]: B; Sterilization effect [12, 14]: B |
| [Na+].[O-]Cl [S.H 150 ppm, sodium hypochlorite] | A | D | A | D | A | D | A | D | A | D | A | D | A | D | A | C | A | D | A | D | Sterilization effect [8, 13]: A; Sterilization effect [8, 14]: D; Sterilization effect [9, 13]: A; Sterilization effect [9, 14]: D; Sterilization effect [10, 13]: A; Sterilization effect [10, 14]: D; Sterilization effect [11, 13]: A; Sterilization effect [11, 14]: D; Sterilization effect [12, 13]: A; Sterilization effect [12, 14]: C |
